# Assay results as given in patent US6268181A, “Methods for producing a potentiator of Bacillus pesticidal activity” (Valent BioSciences, Corporation, priority 1998, dated 2001).
# Legend:
# Spodoptera exigua = Spodoptera exigua micro-bioassay (potentiation of Bt Cry protein by Ia); type: in vivo; conditions: for Mortality: after 2 days
# Experimental: Activity is monitored by a Spodoptera exigua micro-bioassay, and purity is determined by capillary electrophoresis. […] The trays containing the various samples are air dried. Two to four 2nd or early 3rd instar Spodoptera exigua are added to the wells containing the dried sample. The wells are sealed with mylar poked with holes and are incubated for 2-3 days at 30° C. Degree of stunting and percent mortality are then recorded. Typically, 5 replicate wells are run for each sample.
# *Mortality = # insects dead/# total insects after 2 days
# .dagger.Stunt score is defined by the average size of the live insect
# larvae at the end of the bioassay: 4.0 = untreated control, 3.0 = 75% size
# of untreated control, 2.0 = 50% size of untreated control, 1.0 = 25% size
# of untreated control, 0.0 = no growth or size unchanged from start of […]
# Phytophthora medicaginis = conditions: cited from earlier work
# [1] = Table II, 120 μg/ml, without Ia
# [2] = Table II, 240 μg/ml, without Ia
compound,measurement,setting,value
"CryIA(c): Bt crystal delta-endotoxin; truncated in Table I, full-length (130 kDa) in Table II",Stunt Score,"Spodoptera exigua; Table II, 0.8 μg/ml, with Ia",1.6
same,Mortality,"Spodoptera exigua; Table II, 0.8 μg/ml, with Ia",2/5
same,Stunt Score,"Spodoptera exigua; Table II, 3 μg/ml, with Ia",1.0
same,Mortality,"Spodoptera exigua; Table II, 3 μg/ml, with Ia",4/5
same,Stunt Score,"Spodoptera exigua; Table II, 15 μg/ml, with Ia",0.0
same,Mortality,"Spodoptera exigua; Table II, 15 μg/ml, with Ia",4/5
same,Mortality,"Spodoptera exigua; Table II, 30 μg/ml, with Ia",5/5
same,Stunt Score,"Spodoptera exigua; Table II, 30 μg/ml, without Ia",4.0
same,Mortality,"Spodoptera exigua; Table II, 30 μg/ml, without Ia",0/5
same,Mortality,"Spodoptera exigua; Table II, 60 μg/ml, with Ia",5/5
same,Stunt Score,"Spodoptera exigua; Table II, 60 μg/ml, without Ia",2.2
same,Mortality,"Spodoptera exigua; Table II, 60 μg/ml, without Ia",0/5
same,Stunt Score,Spodoptera exigua; [1],2.2
same,Mortality,Spodoptera exigua; [1],0/5
same,Stunt Score,Spodoptera exigua; [2],0.5
same,Mortality,Spodoptera exigua; [2],1/5
same,concentration giving same mortality/stunt score as protein with Ia,"Spodoptera exigua; protein alone, full-length CryIA(c), CryII, CryIC",240 µg/mL
same,Mortality,"Spodoptera exigua; truncated Bt protein, OD280 0.0006, with Ia",1/5
same,Stunt Score,"Spodoptera exigua; truncated Bt protein, OD280 0.0006, with Ia, 4.0 = untreated control, 0.0 = no growth",1.0
same,Mortality,"Spodoptera exigua; truncated Bt protein, OD280 0.0012, with Ia",0/5
same,Stunt Score,"Spodoptera exigua; truncated Bt protein, OD280 0.0012, with Ia, 4.0 = untreated control, 0.0 = no growth",1.0
same,Mortality,"Spodoptera exigua; truncated Bt protein, OD280 0.0025, with Ia",2/5
same,Stunt Score,"Spodoptera exigua; truncated Bt protein, OD280 0.0025, with Ia, 4.0 = untreated control, 0.0 = no growth",2.0
same,Mortality,"Spodoptera exigua; truncated Bt protein, OD280 0.005, with Ia",1/5
same,Stunt Score,"Spodoptera exigua; truncated Bt protein, OD280 0.005, with Ia, 4.0 = untreated control, 0.0 = no growth",0.0
same,Mortality,"Spodoptera exigua; truncated Bt protein, OD280 0.010, with Ia",0/5
same,Stunt Score,"Spodoptera exigua; truncated Bt protein, OD280 0.010, with Ia, 4.0 = untreated control, 0.0 = no growth",0.2
same,Mortality,"Spodoptera exigua; truncated Bt protein, OD280 0.020, with Ia",1/5
same,Stunt Score,"Spodoptera exigua; truncated Bt protein, OD280 0.020, with Ia, 4.0 = untreated control, 0.0 = no growth",0.0
same,Mortality,"Spodoptera exigua; truncated Bt protein, OD280 0.020, without Ia",0/5
same,Stunt Score,"Spodoptera exigua; truncated Bt protein, OD280 0.020, without Ia, 4.0 = untreated control, 0.0 = no growth",2.8
same,Mortality,"Spodoptera exigua; truncated Bt protein, OD280 0.040, without Ia",0/5
same,Stunt Score,"Spodoptera exigua; truncated Bt protein, OD280 0.040, without Ia, 4.0 = untreated control, 0.0 = no growth",2.6
same,Mortality,"Spodoptera exigua; truncated Bt protein, OD280 0.075, without Ia",0/5
same,Stunt Score,"Spodoptera exigua; truncated Bt protein, OD280 0.075, without Ia, 4.0 = untreated control, 0.0 = no growth",3.4
same,OD280 giving same stunt score as protein with Ia,"Spodoptera exigua; truncated CryIA(c), tested alone",0.075 OD280
same,OD280 giving same stunt score as protein alone,"Spodoptera exigua; truncated CryIA(c), with Ia",0.0006 OD280
same,concentration giving same mortality/stunt score as protein alone,"Spodoptera exigua; with Ia, full-length CryIA(c), CryII inclusions, CryIC inclusions",0.75 µg/mL
NC(=O)NCC(NC(=O)C(O)C(O)C(N)C(O)CC(O)C(N)CO)C(N)=O (stereo not shown) [zwittermicin A],infection of alfalfa,Phytophthora medicaginis; alfalfa,reduces the infection
same,growth of Phytophthora medicaginis,Phytophthora medicaginis; plant pathogen,inhibits the growth
